Patent US10525017B2, “Composition containing meso-2,3-butanediol” (Amorepacific Corporation, priority 2014, dated 2020)

Tests used:
[1] = test system: Aspergillus niger (ATCC 16404); experiment: Antibacterial activity test (MIC); format: cell-based; conditions: broth culture, 25 to 32° C., 24 to 72 hours; tested 0.01 to 10% (v/v)
Protocol: (§1) In order to compare the antibacterial activities by the position and stereoscopic orientation of the hydroxyl group of the diol, the antibacterial activities (minimum inhibitory concentration, MIC) against the samples described in Table 1 below, that is, six kinds of diols such as 1,3-butanediol, were measured.
(§2) The antibacterial activity measurement tests were performed using bacteria, yeasts and molds, such as Escherichia coli (ATCC 8739), Pseudomonas aeruginosa (ATCC 9027), Staphylococcus aureus (ATCC 6538), Candida albicans (ATCC 10231), and Aspergillus niger; (ATCC 16404). Respective substances or the like were added to Tryptic Soy broth and Sabouraud Dextrose (SD) broth at a concentration of 0.01 to 10% (v/v), the culture solution was prepared in a liquid phase, and the bacteria, yeasts, and molds were inoculated, and then cultured at 25 to 32° C. for 24 to 72 hours to observe the state of the bacteria.

[2] = test system: Candida albicans (ATCC 10231); experiment: Antibacterial activity test (MIC); format: cell-based; conditions: broth culture, 25 to 32° C., 24 to 72 hours; tested 0.01 to 10% (v/v)
Protocol: as §1, §2

[3] = test system: Escherichia coli (ATCC 8739); experiment: Antibacterial activity test (MIC); format: cell-based; conditions: broth culture, 25 to 32° C., 24 to 72 hours; tested 0.01 to 10% (v/v)
Protocol: as §1, §2

[4] = test system: Pseudomonas aeruginosa (ATCC 9027); experiment: Antibacterial activity test (MIC); format: cell-based; conditions: broth culture, 25 to 32° C., 24 to 72 hours; tested 0.01 to 10% (v/v)
Protocol: as §1, §2

[5] = test system: Staphylococcus aureus (ATCC 6538); experiment: Antibacterial activity test (MIC); format: cell-based; conditions: broth culture, 25 to 32° C., 24 to 72 hours; tested 0.01 to 10% (v/v)
Protocol: as §1, §2

[6] = Skin irritation test, 24 h patch test; format: in vivo, human
Protocol: In order to evaluate the skin safety of a human body on 1,3-butanediol, 1,2-butanediol and 1,2-hexanediol (conventionally used diol), which are similar to meso-2,3-butanediol, S,S-2,3-butanediol and R,R-2,3-butanediol that are stereoisomers of 2,3-butanediol except that the position of a hydroxy group is different, the patch test was carried out for 24 hours. The patch was attached to the upper part of the subject's back, and 20 μl of the prepared test substance was applied to the patch using an IQ chamber (chemotechique, Sweeden). The patch was attached and after the lapse of 24 hours, the patch was removed. After removal of the patch, the first reading was performed after 30 minutes, and the second reading was performed after 24 hours.
In order to investigate the intensity of the skin irritation of the samples, weighting values were given according to the degree of positive reaction of the skin, skin average reactivity was determined, and the skin irritation of the sample was judged. The skin average reactivity was calculated using the mathematical formula 1 below, and the determination criteria are as shown in Table 5 below.

[7] = Content 30%, 20 μl, 24 h patch on back, less than 1 = no irritation, 1-3 mild, 3-5 moderate

Row | minimum inhibitory concentration, MIC, A. niger [1] | minimum inhibitory concentration, MIC, C. albicans [2] | minimum inhibitory concentration, MIC, E. coli [3] | minimum inhibitory concentration, MIC, P. aeruginosa [4] | minimum inhibitory concentration, MIC, S. aureus [5] | Compound | Skin irritation Score (skin average reactivity) [6, 7] | Skin irritation Score (skin average reactivity) ([6]; human, in vivo, 24 h, 20 %) | Skin irritation Score (skin average reactivity) ([6]; human, in vivo, 24 h, 30 %) | numerical value of skin irritation, in words ([6]; in vivo)
1 | 1.25 % (v/v) | 2.5 % (v/v) | 1.25 % (v/v) | 2.5 % (v/v) | 5 % (v/v) | C[C@H](O)[C@@H](C)O [Meso-2,3-butanediol, meso-2,3-butanediol] | – | – | 0.41 | lower
2 | 5 % (v/v) | 5 % (v/v) | 2.5 % (v/v) | 5 % (v/v) | 10 % (v/v) | C[C@@H](O)[C@@H](C)O [R,R-2,3-butanediol] | – | – | 1.45 | –
3 | 1.25 % (v/v) | 5 % (v/v) | 5 % (v/v) | 5 % (v/v) | 2.5 % (v/v) | C[C@H](O)[C@H](C)O [S,S-2,3-butanediol] | – | – | 2.12 | –

More lines, now with the values behind:

Row | Compound | minimum inhibitory concentration, MIC, A. niger [1] | minimum inhibitory concentration, MIC, C. albicans [2] | minimum inhibitory concentration, MIC, E. coli [3] | minimum inhibitory concentration, MIC, P. aeruginosa [4] | minimum inhibitory concentration, MIC, S. aureus [5] | Skin irritation Score (skin average reactivity) [6, 7] | Skin irritation Score (skin average reactivity) ([6]; human, in vivo, 24 h, 20 %) | Skin irritation Score (skin average reactivity) ([6]; human, in vivo, 24 h, 30 %) | numerical value of skin irritation, in words ([6]; in vivo)
4 | CCC(O)CO (stereo not shown) [1,2-butanediol] | 2.5 % (v/v) | 5 % (v/v) | 5 % (v/v) | 2.5 % (v/v) | 1.25 % (v/v) | 2.48 | – | – | –
5 | CCCCC(O)CO (stereo not shown) [1,2-hexanediol] | 0.625 % (v/v) | 1.25 % (v/v) | 1.25 % (v/v) | 1.25 % (v/v) | 2.5 % (v/v) | – | 2.54 | – | –
6 | CC(O)CCO (stereo not shown) [1,3-butanediol] | >10 % (v/v) | >10 % (v/v) | >10 % (v/v) | >10 % (v/v) | >10 % (v/v) | 0.52 | – | – | –
